Laboratory results taken from US8501936B2 (priority 2009, dated 2013).

Tests used:
human JAK2 = human JAK2 (Homo sapiens (Human), UniProt O60674); conditions: read-out: JAK2 IC50
human FAK = human FAK (Homo sapiens (Human), UniProt Q05397); conditions: read-out: FAK IC50
Sequence of human FAK (Q05397 whole entry): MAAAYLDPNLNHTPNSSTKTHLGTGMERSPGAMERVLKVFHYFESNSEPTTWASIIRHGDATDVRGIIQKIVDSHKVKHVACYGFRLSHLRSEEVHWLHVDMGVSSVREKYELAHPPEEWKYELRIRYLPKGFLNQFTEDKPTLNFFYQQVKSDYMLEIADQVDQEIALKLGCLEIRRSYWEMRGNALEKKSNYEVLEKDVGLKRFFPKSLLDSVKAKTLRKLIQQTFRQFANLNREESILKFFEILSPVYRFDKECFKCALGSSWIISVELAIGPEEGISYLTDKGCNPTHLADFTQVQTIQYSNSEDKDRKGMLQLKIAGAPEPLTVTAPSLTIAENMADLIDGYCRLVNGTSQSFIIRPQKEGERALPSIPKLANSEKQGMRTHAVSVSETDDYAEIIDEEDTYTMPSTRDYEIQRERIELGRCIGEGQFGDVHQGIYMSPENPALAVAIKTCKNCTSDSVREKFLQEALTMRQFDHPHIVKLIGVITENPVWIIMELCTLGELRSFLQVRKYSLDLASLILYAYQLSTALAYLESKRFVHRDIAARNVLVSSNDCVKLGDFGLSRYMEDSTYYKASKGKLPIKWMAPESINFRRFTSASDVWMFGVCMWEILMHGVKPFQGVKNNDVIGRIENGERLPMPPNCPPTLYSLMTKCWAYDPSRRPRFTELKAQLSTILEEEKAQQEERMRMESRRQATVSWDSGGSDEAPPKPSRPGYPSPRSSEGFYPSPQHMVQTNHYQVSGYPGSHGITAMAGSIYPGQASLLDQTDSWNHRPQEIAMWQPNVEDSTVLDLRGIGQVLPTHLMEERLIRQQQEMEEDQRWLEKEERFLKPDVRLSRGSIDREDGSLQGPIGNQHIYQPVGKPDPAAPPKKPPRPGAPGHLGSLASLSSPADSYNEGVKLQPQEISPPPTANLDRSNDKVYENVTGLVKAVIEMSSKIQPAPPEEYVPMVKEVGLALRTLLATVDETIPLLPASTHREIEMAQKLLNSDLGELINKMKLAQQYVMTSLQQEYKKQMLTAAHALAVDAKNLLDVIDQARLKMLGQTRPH

Sequence of human JAK2 (O60674 815-1132): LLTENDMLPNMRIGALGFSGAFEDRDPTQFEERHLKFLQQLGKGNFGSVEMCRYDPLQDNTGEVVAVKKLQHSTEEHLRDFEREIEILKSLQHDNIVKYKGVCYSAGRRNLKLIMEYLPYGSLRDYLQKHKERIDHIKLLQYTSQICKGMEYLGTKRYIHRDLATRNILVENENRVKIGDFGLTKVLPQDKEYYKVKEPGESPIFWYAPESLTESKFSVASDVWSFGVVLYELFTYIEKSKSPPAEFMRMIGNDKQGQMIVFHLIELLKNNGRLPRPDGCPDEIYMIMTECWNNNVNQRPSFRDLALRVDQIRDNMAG

## COc1ccc(C(F)(F)F)cc1-c1cccc2nc(Nc3ccc4c(c3)CCN(CCSC)CC4)nn12 [Example 235, [5-(2-Methoxy-5-trifluoromethyl-phenyl)-[1,2,4]triazolo[1,5-a]pyridin-2-yl]-(3-(2-methylsulfanyl-ethyl)-2,3,4,5-tetrahydro-1H-3-benzazepin-7-yl]-amine]
Human JAK2
  IC50: 26.7 nM
Human FAK
  IC50: 135 nM

## COc1ccc(C(F)(F)F)cc1-c1cccn2nc(Nc3ccc4c(c3)CCN(C(=O)OC(C)(C)C)C4)nc12 [Example 336, 6-[8-(2-Methoxy-5-trifluoromethyl-phenyl)-[1,2,4]triazolo[1,5-a]pyridin-2-ylamino]-3,4-dihydro-1H-isoquinoline-2-carboxylic acid tert-butyl ester]
Human JAK2
  IC50: 1150 nM
Human FAK
  IC50: 10000 nM

## CN1CCC(c2ccc(Nc3nc4c(NCc5cccc(S(C)(=O)=O)c5)cccn4n3)cc2)CC1 [Example 162, N(8)-(3-Methanesulfonyl-benzyl)-N(2)-[4-(1-methyl-piperidin-4-yl)-phenyl]-[1,2,4]triazolo[1,5-a]pyridine-2,8-diamine]
Human JAK2
  IC50: 328 nM
Human FAK
  IC50: 10000 nM

## CCOc1ccc(C(F)(F)F)cc1-c1cccn2nc(Nc3ccc4c(c3)CCN(CCS(C)(=O)=O)CC4)nc12 [Example 320, [8-(2-Ethoxy-5-trifluoromethyl-phenyl)-[1,2,4]triazolo[1,5-a]pyridin-2-yl]-[3-(2-methanesulfonyl-ethyl)-2,3,4,5-tetrahydro-1H-3-benzazepin-7yl)-amine]
Human JAK2
  IC50: 160 nM
Human FAK
  IC50: 3000 nM

## CN(Cc1ccccc1CNc1cccn2nc(Nc3ccc(OCCN4CCCC4)cc3)nc12)S(C)(=O)=O [Example 158, N-Methyl-N-[2-({2-[4-(2-pyrrolidin-1-yl-ethoxy)-phenylamino]-[1,2,4]triazolo[1,5-a]pyridin-8-ylamino}-methyl)-benzyl]-methanesulfonamide]
Human JAK2
  IC50: 97.5 nM
Human FAK
  IC50: 276 nM

## c1cc(-c2ccncc2)c2nc(Nc3ccc(N4CCOCC4)cc3)nn2c1 [Example 11, (4-Morpholin-4-yl-phenyl)-(8-pyridin-4-yl-[1,2,4]triazolo[1,5-a]pyridin-2-yl)-amine]
Human JAK2
  IC50: 5.5 nM
Human FAK
  IC50: 6500 nM

## COc1cccc(CNc2cccn3nc(Nc4cccc(N5CCN(C)CC5)c4)nc23)c1 [Example 392, N(8)-(3-Methoxy-benzyl)-N(2)-[3-(4-methyl-piperazin-1-yl)-phenyl]-[1,2,4]triazolo[1,5-a]pyridine-2,8-diamine]
Human JAK2
  IC50: 3000 nM
Human FAK
  IC50: 10000 nM

## COc1ccccc1-c1cccn2nc(Nc3cccc(N4CCN(C)CC4)c3)nc12 [Example 56, [8-(2-Methoxy-phenyl)-[1,2,4]triazolo[1,5-a]pyridin-2-yl]-[3-(4-methyl-piperazin-1-yl)-phenyl]-amine]
Human JAK2
  IC50: 26.8 nM
Human FAK
  IC50: 3000 nM

## COc1ccc(CNc2cccn3nc(Nc4ccc(N5CCN(C)CC5)cc4)nc23)cc1 [Example 391, N(8)-(4-Methoxy-benzyl)-N(2)-[4-(4-methyl-piperazin-1-yl)-phenyl]-[1,2,4]triazolo[1,5-a]pyridine-2,8-diamine]
Human JAK2
  IC50: 3020 nM
Human FAK
  IC50: 10000 nM

## CN1CCN(c2cccc(Nc3nc4c(Nc5ccccc5S(C)(=O)=O)cccn4n3)c2)CC1 [Example 68, N(8)-(2-Methanesulfonyl-phenyl)-N(2)-[3-(4-methyl-piperazin-1-yl)-phenyl]-[1,2,4]triazolo[1,5-a]pyridine-2,8-diamine]
Human JAK2
  IC50: 29 nM

## COc1cnc(-c2cccn3nc(Nc4ccc(C5CCN(C(=O)OC(C)(C)C)CC5)cc4)nc23)cn1 [Example 284, 4-{4-[8-(5-Methoxy-pyrazin-2-yl)-[1,2,4]triazolo[1,5-a]pyridine-2-ylamino]-phenyl}-piperidine-1-carboxylic acid tert-butyl ester]
Human JAK2
  IC50: 1490 nM

## CN1CCN(c2ccc(Nc3nc4c(O)cccn4n3)cc2)CC1 [Example 264, 2-[4-(4-Methyl-piperazin-1-yl)-phenylamino]-[1,2,4]triazolo[1,5-a]pyridin-8-ol]
Human JAK2
  IC50: 567 nM

## CC(C)(C)OC(=O)N1CCc2ccc(Nc3nc4c(-c5cc(C(F)(F)F)ccc5F)cccn4n3)cc2CC1 [Example 269, [8-(2-Fluoro-5-trifluoromethyl-phenyl)-[1,2,4]triazolo[1,5-a]pyridin-2-ylamino]-[2,3,4,5-tetrahydro-1H-benzo[d]azopin-7-yl]-3-carboxylic acid tert-butyl ester]
Human JAK2
  IC50: 586 nM

## c1ccc(Nc2nc3ccccn3n2)cc1 [Example 1, Phenyl-[1,2,4]triazolo[1,5-a]pyridin-2-yl-amine]
Human JAK2
  IC50: 1090 nM

## c1cc(-c2ccncc2)c2nc(Nc3ccc(OCCN4CCCC4)cc3)nn2c1 [Example 15, (8-pyridin-4-yl-[1,2,4]triazolo[1,5-a]pyridin-2-yl)-[4-(2-pyrrolidin-1-yl-ethoxy)-phenyl]-amine]
Human JAK2
  IC50: 3000 nM

## CS(=O)(=O)c1ccc(-c2cccn3nc(Nc4ccc(N5CCCCC5)cc4)nc23)cc1 [Example 18, [8-(4-Methanesulfonyl-phenyl)-[1,2,4]triazolo[1,5-a]pyridin-2-yl]-(4-piperidin-1-yl-phenyl)-amine]
Human JAK2
  IC50: 0.6 nM

## CN1CCN(c2cccc(Nc3nc4c(-c5ccccc5S(C)(=O)=O)cccn4n3)c2)CC1 [Example 67, [8-(2-Methanesulfonyl-phenyl)-[1,2,4]triazolo[1,5-a]pyridin-2-yl]-[3-(4-methyl-piperazin-1-yl)-phenyl]-amine]
Human JAK2
  IC50: 2500 nM

## COc1ccc(C(F)(F)F)cc1Nc1cccn2nc(Nc3cccc(N4CCN(C)CC4)c3)nc12 [Example 290, N(8)-(2-Methoxy-5-trifluoromethyl-phenyl)-N(2)-[3-(4-methyl-piperazin-1-yl)-phenyl]-[1,2,4]triazolo[1,5-a]pyridine-2,8-diamine]
Human JAK2
  IC50: 3000 nM

## COc1ccc(Nc2nc3c(NC4CCN(S(C)(=O)=O)CC4)cccn3n2)cc1 [Example 41, N(8)-(1-Methanesulfonyl-piperidin-4-yl)-N(2)-(4-methoxy-phenyl)-[1,2,4]triazolo[1,5-a]pyridine-2,8-diamine]
Human JAK2
  IC50: 375 nM

## CC(C)(C)OC(=O)N1CCN(c2ccc(Nc3nc4cccc(-c5ccccc5)n4n3)cc2)CC1 [Example 77, 4-[4-(5-Phenyl-[1,2,4]triazolo[1,5-a]pyridin-2-ylamino)-phenyl]-piperazine-1-carboxylic acid tert-butyl ester]
Human JAK2
  IC50: 6.6 nM

## CN1CCN(c2cccc(Nc3nc4c(Oc5ccc(S(C)(=O)=O)cc5)cccn4n3)c2)CC1 [Example 214, [8-(4-Methanesulfonyl-phenoxy)-[1,2,4]triazolo[1,5-a]pyridin-2-yl]-[3-(4-methyl-piperazin-1-yl)-phenyl]-amine]
Human JAK2
  IC50: 1650 nM

## COc1ccccc1Nc1nc2cccc(-c3cccc(S(C)(=O)=O)c3)n2n1 [Example 80, [5-(3-Methanesulfonyl-phenyl)-[1,2,4]triazolo[1,5-a]pyridin-2-yl]-(2-methoxy-phenyl)-amine]
Human JAK2
  IC50: 1210 nM

## Cc1ccc(-n2cc(-c3cccn4nc(Nc5ccc(C6CCN(C(=O)OC(C)(C)C)CC6)cc5)nc34)cn2)cc1 [Example 287, 4-{4-[8-(1-p-Tolyl-1H-pyrazol-4-yl)-[1,2,4]triazolo[1,5-a]pyridine-2-ylamino]-phenyl}-piperidine-1-carboxylic acid tert-butyl ester]
Human JAK2
  IC50: 1690 nM

## COc1ccc(Nc2nc3c(C4=CCN(S(C)(=O)=O)CC4)cccn3n2)cc1 [Example 34, [8-(1-Methanesulfonyl-1,2,3,6-tetrahydro-pyridin-4-yl)-[1,2,4]triazolo[1,5-a]pyridin-2-yl]-(4-methoxy-phenyl)-amine]
Human JAK2
  IC50: 1 nM

## CC1(C)CCC(C)(C)c2cc(Nc3nc4c(-c5ccc(S(C)(=O)=O)cc5)cccn4n3)ccc21 [Example 28, [8-(4-Methanesulfonyl-phenyl)-[1,2,4]triazolo[1,5-a]pyridin-2-yl]-(5,5,8,8-tetramethyl-5,6,7,8-tetrahydro-naphthalen-2-yl)-amine]
Human JAK2
  IC50: 27.7 nM

## COc1ccccc1Nc1nc2c(-c3ccc(S(C)(=O)=O)cc3)cccn2n1 [Example 25, [8-(4-Methanesulfonyl-phenyl)-[1,2,4]triazolo[1,5-a]pyridin-2-yl]-(2-methoxy-phenyl)-amine]
Human JAK2
  IC50: 1320 nM

## CS(=O)(=O)c1ccc(-c2cccn3nc(Nc4ccc(OS(=O)(=O)C(F)(F)C(F)(F)C(F)(F)C(F)(F)F)cc4)nc23)cc1 [Example 45, 1,1,2,2,3,3,4,4,4-Nonafluoro-butane-1-sulfonic acid 4-[8-(4-methanesulfonyl-phenyl)-[1,2,4]triazolo[1,5-a]pyridin-2-ylamino]-phenyl ester]
Human JAK2
  IC50: 106 nM

## CN1CCN(c2ccc(NC(=O)Nc3nc4cccc(-c5ccc(S(C)(=O)=O)cc5)n4n3)cc2)CC1 [Example 90, 1-[5-(4-Methanesulfonyl-phenyl)-[1,2,4]triazolo[1,5-a]pyridin-2-yl]-3-[4-(4-methyl-piperazin-1-yl)-phenyl]-urea]
Human JAK2
  IC50: 1530 nM

## COc1ccc(Nc2nc3c(N4CCN(S(C)(=O)=O)CC4)cccn3n2)cc1 [Example 33, [8-(4-Methanesulfonyl-piperazin-1-yl)-[1,2,4]triazolo[1,5-a]pyridin-2-yl]-(4-methoxy-phenyl)-amine]
Human JAK2
  IC50: 60.4 nM

## COc1cccc(Nc2nc3cccc(-c4cccc(S(C)(=O)=O)c4)n3n2)c1 [Example 79, [5-(3-Methanesulfonyl-phenyl)-[1,2,4]triazolo[1,5-a]pyridin-2-yl]-(3-methoxy-phenyl)-amine]
Human JAK2
  IC50: 15.1 nM

## Cc1cccn2nc(Nc3ccc(S(C)(=O)=O)cc3)nc12 [Example 265, (4-Methanesulfonyl-phenyl)-(8-methyl-[1,2,4]triazolo[1,5-a]pyridin-2-yl)-amine]
Human JAK2
  IC50: 2620 nM

## CN1CCN(c2ccc(Nc3nc4ccc(-c5ccc(S(C)(=O)=O)cc5)cn4n3)cc2)CC1 [Example 37, [6-(4-Methanesulfonyl-phenyl)-[1,2,4]triazolo[1,5-a]pyridin-2-yl]-[4-(4-methyl-piperazin-1-yl)-phenyl]-amine]
Human JAK2
  IC50: 2970 nM

## COc1ccccc1Nc1nc2c(-c3cccc(C(F)(F)F)c3)cccn2n1 [Example 21, (2-Methoxy-phenyl)-[8-(3-trifluoromethyl-phenyl)-[1,2,4]triazolo[1,5-a]pyridin-2-yl]-amine]
Human JAK2
  IC50: 3000 nM
